Assay results: ChEMBL document CHEMBL1201862, “PubChem BioAssay data set” (2004)
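Step 1: Grow cells in 96-well plates. Step 2: Expose to compound for 48 hours at 5 concentrations. Step 3: Interpolate endpoints linearly; if unreached, use highest concentration. At the GI50, growth is halved.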 Calls of active or inactive are those of the source. Cut-off read from the data, not from the text of the source: active = GI50 up to about 1.1 µM and inactive = higher.

Legend:
Assay in all cases: inhibition of tumour cell growth, NCI panel, 48 h
[1] = test system: HCT-116
[2] = test system: OVCAR-4
[3] = test system: NCI-H226
[4] = test system: HCC 2998
[5] = test system: HCT-15
[6] = test system: LOX IMVI
[7] = test system: EKVX
[8] = test system: NCI-H23
[9] = test system: K562
[10] = test system: IGROV-1
[11] = test system: HL-60
[12] = test system: SK-MEL-28
[13] = test system: OVCAR-5
[14] = test system: SN12C
[15] = test system: NCI-H460
[16] = test system: MCF7
[17] = test system: SF-268
[18] = test system: KM12
[19] = test system: OVCAR-8
[20] = test system: SF-539

SMILES | GI50 [1] | GI50 [2] | GI50 [3] | GI50 [4] | GI50 [5] [µM] | GI50 [6] | GI50 [7] | GI50 [8] | GI50 [9] | GI50 [10] | GI50 [11] | GI50 [12] | GI50 [13] | GI50 [14] | GI50 [15] | GI50 [16] | GI50 [17] | GI50 [18] | GI50 [19] | GI50 [20]
O=C(O)C(Cc1cccs1)C(=O)O | > 100 µM (inactive) | > 100 µM (inactive) | > 100 µM (inactive) | > 100 µM (inactive) | > 100 | > 100 µM (inactive) | > 100 µM (inactive) | > 100 µM (inactive) | > 100 µM (inactive) | > 100 µM (inactive) | > 100 µM (inactive) | > 100 µM (inactive) | > 100 µM (inactive) | > 100 µM (inactive) | > 100 µM (inactive) | > 100 µM (inactive) | > 100 µM (inactive) | > 100 µM (inactive) | > 100 µM (inactive) | –
COc1ccc(CNc2nc3cc(C(F)(F)F)ccc3nc2C(=O)O)cc1 | 19.2 µM (inactive) | 32.9 µM (inactive) | 40 µM (inactive) | 31.6 µM (inactive) | 22.6 | 19.4 µM (inactive) | 23.6 µM (inactive) | 24.5 µM (inactive) | 24.7 µM (inactive) | 27.4 µM (inactive) | – | 37.3 µM (inactive) | 28.4 µM (inactive) | 21.4 µM (inactive) | 31.4 µM (inactive) | 25 µM (inactive) | – | 22.4 µM (inactive) | 32.3 µM (inactive) | 23 µM (inactive)
CC(C)N(C(=O)C12C3(C(=O)OC(C)(C)C)C4C5(C#N)C3C1(C(=O)OC(C)(C)C)C5C42C(=O)OC(C)(C)C)C(C)C (stereo not given) | 19.8 µM (inactive) | 71.6 µM (inactive) | – | 97.9 µM (inactive) | 89.5 | 14.4 µM (inactive) | 53 µM (inactive) | > 100 µM (inactive) | 34.6 µM (inactive) | > 100 µM (inactive) | 20.1 µM (inactive) | 29.4 µM (inactive) | > 100 µM (inactive) | > 100 µM (inactive) | 75.7 µM (inactive) | 14.4 µM (inactive) | > 100 µM (inactive) | > 100 µM (inactive) | > 100 µM (inactive) | > 100 µM (inactive)
COc1ccc(C2C=C(c3ccccc3)Nc3nnnn32)cc1 (stereo not given) | 13.5 µM (inactive) | – | 64 µM (inactive) | – | 31 | 41.7 µM (inactive) | – | > 100 µM (inactive) | 50.6 µM (inactive) | 82.8 µM (inactive) | > 100 µM (inactive) | – | 37.7 µM (inactive) | > 100 µM (inactive) | 45 µM (inactive) | 20.2 µM (inactive) | 44.9 µM (inactive) | 15.8 µM (inactive) | 47.4 µM (inactive) | 23.7 µM (inactive)
CC1CC/C(=C\c2ccc(F)cc2)C2=C1C(c1ccc(F)cc1)n1c(s/c(=C\c3ccc(Cl)cc3)c1=O)=N2 (stereo not given) | > 100 µM (inactive) | > 100 µM (inactive) | – | – | > 100 | > 100 µM (inactive) | > 100 µM (inactive) | – | > 100 µM (inactive) | > 100 µM (inactive) | > 100 µM (inactive) | > 100 µM (inactive) | > 100 µM (inactive) | > 100 µM (inactive) | – | > 100 µM (inactive) | > 100 µM (inactive) | > 100 µM (inactive) | > 100 µM (inactive) | –
CC(C)[Si]1(C(C)C)OCC2OC(n3ccc(=O)[nH]c3=O)C(O)(CO)C2O[Si](C(C)C)(C(C)C)O1 (stereo not given) | 14.3 µM (inactive) | 13.8 µM (inactive) | 21.2 µM (inactive) | – | 18.4 | 15.8 µM (inactive) | 14.2 µM (inactive) | 3.62 µM (inactive) | 18.4 µM (inactive) | 11.6 µM (inactive) | 14.4 µM (inactive) | 19.3 µM (inactive) | 15.9 µM (inactive) | 15.8 µM (inactive) | – | 15.1 µM (inactive) | 13.8 µM (inactive) | 16.5 µM (inactive) | 15.5 µM (inactive) | 17.7 µM (inactive)
N#CC(C#N)=C1C(C#N)=C(N)NC12OCCO2 | > 100 µM (inactive) | > 100 µM (inactive) | > 100 µM (inactive) | > 100 µM (inactive) | > 100 | > 100 µM (inactive) | > 100 µM (inactive) | > 100 µM (inactive) | > 100 µM (inactive) | > 100 µM (inactive) | > 100 µM (inactive) | > 100 µM (inactive) | > 100 µM (inactive) | > 100 µM (inactive) | > 100 µM (inactive) | > 100 µM (inactive) | > 100 µM (inactive) | > 100 µM (inactive) | > 100 µM (inactive) | –
CN(C)CCCN1C(=O)N(CCCN(C)C)c2c3cc(O)ccc3nc3c([N+](=O)[O-])ccc1c23 | 14.1 µM (inactive) | 2.29 µM (inactive) | 23.2 µM (inactive) | 11.7 µM (inactive) | 13.1 | 10.4 µM (inactive) | – | 13 µM (inactive) | 4.99 µM (inactive) | 4.57 µM (inactive) | – | 43.3 µM (inactive) | 53.1 µM (inactive) | 20 µM (inactive) | 15.6 µM (inactive) | 11.3 µM (inactive) | 10.3 µM (inactive) | 14.9 µM (inactive) | 15.8 µM (inactive) | 16 µM (inactive)
COc1cc(/N=C\N(C)C)c2ncccc2c1 | 35.2 µM (inactive) | > 100 µM (inactive) | 49.4 µM (inactive) | – | 38.1 | 44.4 µM (inactive) | > 100 µM (inactive) | > 100 µM (inactive) | 15.8 µM (inactive) | 33.9 µM (inactive) | 26.8 µM (inactive) | > 100 µM (inactive) | > 100 µM (inactive) | > 100 µM (inactive) | – | 48.5 µM (inactive) | 66.1 µM (inactive) | – | 51.8 µM (inactive) | 33.5 µM (inactive)
COC1/C=C(C)/C=C/C(C)/C=C/C(=O)OC(/C(C)=C/C=C(\C)CNC(=O)[C@H](CO)NC=O)C(C)/C=C/C=C/C(OC)CC/C=C(C)/C=C/C1 (stereo not given in full) | 0.0318 µM (active) | 0.491 µM (active) | – | – | 0.111 | 0.0265 µM (active) | 0.139 µM (active) | 0.0497 µM (active) | 0.0192 µM (active) | 0.262 µM (active) | 0.0225 µM (active) | > 0.283 µM (active) | 0.0328 µM (active) | – | 0.0316 µM (active) | 0.052 µM (active) | 0.113 µM (active) | 0.0195 µM (active) | 0.0399 µM (active) | 0.0281 µM (active)
CC(C)=CCC/C(C)=C/CC/C(C)=C/CC(CO)N(C)CC/C=C(\C)CCC=C(C)C (stereo not given) | 2.15 µM (inactive) | 8.97 µM (inactive) | 13.7 µM (inactive) | 3.04 µM (inactive) | 3.78 | 2.92 µM (inactive) | 10.4 µM (inactive) | 7.96 µM (inactive) | 1.6 µM (inactive) | 3.1 µM (inactive) | – | 5.87 µM (inactive) | 7.13 µM (inactive) | 4.54 µM (inactive) | 3.48 µM (inactive) | 2.11 µM (inactive) | 13.3 µM (inactive) | 3.94 µM (inactive) | 7 µM (inactive) | 3.06 µM (inactive)
c1ccc2[nH]c3[nH]c4[nH]c5ccccc5[nH]c4[nH]c3[nH]c2c1 | > 100 µM (inactive) | – | > 100 µM (inactive) | > 100 µM (inactive) | > 100 | > 100 µM (inactive) | > 100 µM (inactive) | > 100 µM (inactive) | > 100 µM (inactive) | > 100 µM (inactive) | > 100 µM (inactive) | > 100 µM (inactive) | 44.5 µM (inactive) | > 100 µM (inactive) | > 100 µM (inactive) | > 100 µM (inactive) | > 100 µM (inactive) | > 100 µM (inactive) | > 100 µM (inactive) | > 100 µM (inactive)
CC(=O)C1(/N=N/c2ccc(S(N)(=O)=O)cc2)CCOC1=O (stereo not given) | > 100 µM (inactive) | > 100 µM (inactive) | > 100 µM (inactive) | – | > 100 | > 100 µM (inactive) | > 100 µM (inactive) | > 100 µM (inactive) | – | > 100 µM (inactive) | 64.6 µM (inactive) | > 100 µM (inactive) | > 100 µM (inactive) | > 100 µM (inactive) | > 100 µM (inactive) | > 100 µM (inactive) | > 100 µM (inactive) | > 100 µM (inactive) | > 100 µM (inactive) | > 100 µM (inactive)
COc1ccc2cc(CNCCCCCCNCc3ccc4cc(OC)ccc4c3)ccc2c1 | 0.176 µM (active) | – | 1.8 µM (inactive) | 0.132 µM (active) | 0.406 | 0.181 µM (active) | 1.39 µM (inactive) | 2.11 µM (inactive) | 0.0897 µM (active) | 1.57 µM (inactive) | 0.181 µM (active) | 0.471 µM (active) | 0.885 µM (active) | 1.33 µM (inactive) | 0.255 µM (active) | 0.319 µM (active) | 0.565 µM (active) | 0.221 µM (active) | 0.531 µM (active) | 1.51 µM (inactive)
C=C(C)OCOCCOC | > 100 µM (inactive) | – | > 100 µM (inactive) | > 100 µM (inactive) | > 100 | > 100 µM (inactive) | > 100 µM (inactive) | > 100 µM (inactive) | > 100 µM (inactive) | > 100 µM (inactive) | > 100 µM (inactive) | > 100 µM (inactive) | > 100 µM (inactive) | > 100 µM (inactive) | > 100 µM (inactive) | > 100 µM (inactive) | > 100 µM (inactive) | > 100 µM (inactive) | > 100 µM (inactive) | > 100 µM (inactive)
